Laboratory results published in patent US20220187282A1, “CARDIOMYOCYTE PROLIFERATION” (The Council of the Queensland Institute of Medical Research, priority 2019, published 2022).
“Also recorded” adds a separate entry of the source. Read-outs that look alike come from different tables or passages of the source.

What was measured:
Type in all cases: biochemical
kinases [1] = biological target: kinases (Homo sapiens, UniProt O75116); conditions: ROCK2 FRET-Z-Lyte SP; Test Conc(μM):ATP Conc(μM) 1:50
kinases [2] = biological target: kinases (Homo sapiens, UniProt O75676); conditions: RPS6KA4 (MSK2) FRET-Z-Lyte SP; Test Conc(μM):ATP Conc(μM) 1:10
kinases [3] = biological target: kinases (Homo sapiens, UniProt O95819); conditions: MAP4K4 (HGK) FRET-Z-Lyte SP; Test Conc(μM):ATP Conc(μM) 1:10
kinases [4] = biological target: kinases (Homo sapiens, UniProt P00519); conditions: ABL1 Hu Phos FRET-Z-Lyte SP; Test Conc(μM):ATP Conc(μM) 1:10
kinases [5] = biological target: kinases (Homo sapiens, UniProt P07333); conditions: CSF1R (FMS) FRET-Z-Lyte SP; Test Conc(μM):ATP Conc(μM) 1:500
kinases [6] = biological target: kinases (Homo sapiens, UniProt P07947); conditions: YES1 FRET-Z-Lyte SP; Test Conc(μM):ATP Conc(μM) 1:25
kinases [7] = biological target: kinases (Homo sapiens, UniProt P15735); conditions: PHKG2 FRET-Z-Lyte SP; Test Conc(μM):ATP Conc(μM) 1:10
kinases [8] = biological target: kinases (Homo sapiens, UniProt P17252); conditions: PRKCA (PKC alpha) Z-Lyte SP; Test Conc(μM):ATP Conc(μM) 1:25
kinases [9] = biological target: kinases (Homo sapiens, UniProt P30291); conditions: WEE1 FRET-Lantha SP; Test Conc(μM) 1
kinases [10] = biological target: kinases (Homo sapiens, UniProt P33981); conditions: TTK FRET-Lantha SP; Test Conc(μM) 1
kinases [11] = biological target: kinases (Homo sapiens, UniProt P42681); conditions: TXK FRET-Z-Lyte SP; Test Conc(μM):ATP Conc(μM) 1:100
kinases [12] = biological target: kinases (Homo sapiens, UniProt P45984)
kinases [13] = biological target: kinases (Homo sapiens, UniProt P51812); conditions: RPS6KA3 (RSK2) FRET-Z-Lyte SP; Test Conc(μM):ATP Conc(μM) 1:10
kinases [14] = biological target: kinases (Homo sapiens, UniProt Q00526); conditions: CDK3/cyclin E1 FRET-Lantha SP; Test Conc(μM) 1
kinases [15] = biological target: kinases (Homo sapiens, UniProt Q06187); conditions: BTK FRET-Z-Lyte SP; Test Conc(μM):ATP Conc(μM) 1:25
kinases [16] = biological target: kinases (Homo sapiens, UniProt Q13464); conditions: ROCK1 FRET-Z-Lyte SP; Test Conc(μM):ATP Conc(μM) 1:5
kinases [17] = biological target: kinases (Homo sapiens, UniProt Q13554); conditions: CAMK2B FRET-Z-Lyte SP; Test Conc(μM):ATP Conc(μM) 1:75
kinases [18] = biological target: kinases (Homo sapiens, UniProt Q13873); conditions: BMPR2 FRET-Lantha SP; Test Conc(μM) 1
kinases [19] = biological target: kinases (Homo sapiens, UniProt Q16832); conditions: DDR2 Hu Bind FRET-Lantha SP; Test Conc(μM) 1
kinases [20] = biological target: kinases (Homo sapiens, UniProt Q32MK0); conditions: MYLK3 Hu Bind FRET-Lantha SP; Test Conc(μM) 1
kinases [21] = biological target: kinases (Homo sapiens, UniProt Q8N5S9); conditions: CAMKK1 (Alpha) FRET-Lantha SP; Test Conc(μM) 1
kinases [22] = biological target: kinases (Homo sapiens, UniProt Q99640); conditions: PKMYT1 FRET-Lantha SP; Test Conc(μM) 1
kinases [23] = biological target: kinases (Homo sapiens, UniProt Q9Y3S1); conditions: WNK2 FRET-Lantha SP; Test Conc(μM) 1
kinases [24] = biological target: kinases
[25] = MAPK9 (JNK2) Cascade Z-Lyte SP, Test Conc(μM):ATP Conc(μM) 1:100
[26] = MAPK9 (JNK2) FRET-Lantha SP, Test Conc(μM) 1
[27] = LYN B FRET-Z-Lyte SP, Test Conc(μM):ATP Conc(μM) 1:25
[28] = PRKCB2 (PKC Beta II) Z-Lyte SP, Test Conc(μM):ATP Conc(μM) 1:200

Chain of kinases (Homo sapiens, UniProt P45984) (P45984 whole entry): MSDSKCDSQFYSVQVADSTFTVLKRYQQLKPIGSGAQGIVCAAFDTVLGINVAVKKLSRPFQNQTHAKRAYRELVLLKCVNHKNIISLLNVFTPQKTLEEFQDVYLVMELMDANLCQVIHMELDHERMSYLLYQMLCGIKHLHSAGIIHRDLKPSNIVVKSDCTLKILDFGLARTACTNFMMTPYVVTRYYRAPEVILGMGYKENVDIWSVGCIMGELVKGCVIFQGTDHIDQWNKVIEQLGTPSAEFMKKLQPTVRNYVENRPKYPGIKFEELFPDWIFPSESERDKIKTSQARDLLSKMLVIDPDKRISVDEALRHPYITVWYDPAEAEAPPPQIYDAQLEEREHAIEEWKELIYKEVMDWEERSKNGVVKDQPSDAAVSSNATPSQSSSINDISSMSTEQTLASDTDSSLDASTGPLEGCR
Chain of kinases (Homo sapiens, UniProt Q99640) (Q99640 whole entry): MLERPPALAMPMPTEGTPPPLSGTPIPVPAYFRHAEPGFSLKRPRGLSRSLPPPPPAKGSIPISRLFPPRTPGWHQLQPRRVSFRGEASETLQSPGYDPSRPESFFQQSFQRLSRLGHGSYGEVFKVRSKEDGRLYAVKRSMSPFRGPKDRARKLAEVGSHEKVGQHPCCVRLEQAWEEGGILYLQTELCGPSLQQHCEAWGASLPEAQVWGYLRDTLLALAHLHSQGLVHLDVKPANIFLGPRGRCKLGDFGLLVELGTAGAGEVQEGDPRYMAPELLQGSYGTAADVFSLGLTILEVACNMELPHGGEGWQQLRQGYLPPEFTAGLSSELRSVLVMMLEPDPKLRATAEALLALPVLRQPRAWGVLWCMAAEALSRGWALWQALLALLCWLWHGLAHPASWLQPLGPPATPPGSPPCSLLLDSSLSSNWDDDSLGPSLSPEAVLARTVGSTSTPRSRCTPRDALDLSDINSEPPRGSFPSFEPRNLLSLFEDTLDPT
Chain of kinases (Homo sapiens, UniProt P30291) (P30291 whole entry): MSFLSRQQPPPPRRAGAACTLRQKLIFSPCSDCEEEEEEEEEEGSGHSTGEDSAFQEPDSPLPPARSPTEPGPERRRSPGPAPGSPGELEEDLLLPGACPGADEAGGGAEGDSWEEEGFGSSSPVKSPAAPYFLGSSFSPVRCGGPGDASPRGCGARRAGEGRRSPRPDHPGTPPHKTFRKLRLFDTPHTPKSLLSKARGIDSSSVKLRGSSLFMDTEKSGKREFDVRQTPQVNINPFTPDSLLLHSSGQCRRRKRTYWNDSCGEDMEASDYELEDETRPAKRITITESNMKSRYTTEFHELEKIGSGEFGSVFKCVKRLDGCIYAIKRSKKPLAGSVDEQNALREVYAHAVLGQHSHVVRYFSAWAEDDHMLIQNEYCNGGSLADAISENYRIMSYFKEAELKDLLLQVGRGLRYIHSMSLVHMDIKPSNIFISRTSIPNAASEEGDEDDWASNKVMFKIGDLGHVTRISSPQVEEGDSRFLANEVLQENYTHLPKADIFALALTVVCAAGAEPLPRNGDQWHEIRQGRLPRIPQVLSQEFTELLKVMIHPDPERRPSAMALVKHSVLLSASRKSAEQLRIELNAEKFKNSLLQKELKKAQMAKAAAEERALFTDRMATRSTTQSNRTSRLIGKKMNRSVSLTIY
Chain of kinases (Homo sapiens, UniProt P00519) (P00519 whole entry): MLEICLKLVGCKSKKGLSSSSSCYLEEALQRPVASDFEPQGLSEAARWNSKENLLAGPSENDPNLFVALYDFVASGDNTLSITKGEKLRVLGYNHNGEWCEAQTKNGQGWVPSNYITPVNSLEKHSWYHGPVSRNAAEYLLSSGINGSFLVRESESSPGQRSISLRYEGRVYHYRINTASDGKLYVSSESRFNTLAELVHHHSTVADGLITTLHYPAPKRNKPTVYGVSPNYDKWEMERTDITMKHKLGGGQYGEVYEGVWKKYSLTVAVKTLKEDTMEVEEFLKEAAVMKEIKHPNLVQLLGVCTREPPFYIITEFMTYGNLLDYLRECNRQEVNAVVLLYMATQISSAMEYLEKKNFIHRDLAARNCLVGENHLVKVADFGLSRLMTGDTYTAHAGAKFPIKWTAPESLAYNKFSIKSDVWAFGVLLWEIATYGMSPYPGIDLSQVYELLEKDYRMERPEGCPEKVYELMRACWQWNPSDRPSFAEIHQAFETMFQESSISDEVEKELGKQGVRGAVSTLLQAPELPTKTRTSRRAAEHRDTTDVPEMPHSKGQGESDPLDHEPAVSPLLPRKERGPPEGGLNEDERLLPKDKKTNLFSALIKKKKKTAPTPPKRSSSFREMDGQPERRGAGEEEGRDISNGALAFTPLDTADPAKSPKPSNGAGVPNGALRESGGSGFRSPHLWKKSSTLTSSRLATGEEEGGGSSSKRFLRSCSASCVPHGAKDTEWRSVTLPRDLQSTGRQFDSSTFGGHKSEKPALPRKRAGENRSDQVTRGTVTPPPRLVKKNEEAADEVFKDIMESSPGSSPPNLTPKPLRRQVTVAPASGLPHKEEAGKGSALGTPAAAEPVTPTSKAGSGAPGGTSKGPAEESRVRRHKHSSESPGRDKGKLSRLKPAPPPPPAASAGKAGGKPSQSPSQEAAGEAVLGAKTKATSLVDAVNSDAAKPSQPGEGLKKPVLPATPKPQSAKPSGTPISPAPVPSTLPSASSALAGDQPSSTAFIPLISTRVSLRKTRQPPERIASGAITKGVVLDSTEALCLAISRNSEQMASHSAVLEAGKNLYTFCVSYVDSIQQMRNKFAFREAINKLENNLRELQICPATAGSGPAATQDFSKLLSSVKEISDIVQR
Chain of kinases (Homo sapiens, UniProt P15735) (P15735 whole entry): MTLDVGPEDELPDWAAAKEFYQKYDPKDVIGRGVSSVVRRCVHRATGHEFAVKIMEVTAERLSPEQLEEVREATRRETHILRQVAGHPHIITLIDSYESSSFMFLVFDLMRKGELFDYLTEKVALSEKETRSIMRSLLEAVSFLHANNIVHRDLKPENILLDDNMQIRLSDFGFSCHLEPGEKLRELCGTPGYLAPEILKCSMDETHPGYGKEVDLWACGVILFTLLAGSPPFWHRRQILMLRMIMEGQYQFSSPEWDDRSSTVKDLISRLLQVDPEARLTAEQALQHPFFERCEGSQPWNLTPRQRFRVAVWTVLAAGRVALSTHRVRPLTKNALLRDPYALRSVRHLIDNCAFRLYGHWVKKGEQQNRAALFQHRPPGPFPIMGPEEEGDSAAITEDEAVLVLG
Chain of kinases (Homo sapiens, UniProt O75676) (O75676 whole entry): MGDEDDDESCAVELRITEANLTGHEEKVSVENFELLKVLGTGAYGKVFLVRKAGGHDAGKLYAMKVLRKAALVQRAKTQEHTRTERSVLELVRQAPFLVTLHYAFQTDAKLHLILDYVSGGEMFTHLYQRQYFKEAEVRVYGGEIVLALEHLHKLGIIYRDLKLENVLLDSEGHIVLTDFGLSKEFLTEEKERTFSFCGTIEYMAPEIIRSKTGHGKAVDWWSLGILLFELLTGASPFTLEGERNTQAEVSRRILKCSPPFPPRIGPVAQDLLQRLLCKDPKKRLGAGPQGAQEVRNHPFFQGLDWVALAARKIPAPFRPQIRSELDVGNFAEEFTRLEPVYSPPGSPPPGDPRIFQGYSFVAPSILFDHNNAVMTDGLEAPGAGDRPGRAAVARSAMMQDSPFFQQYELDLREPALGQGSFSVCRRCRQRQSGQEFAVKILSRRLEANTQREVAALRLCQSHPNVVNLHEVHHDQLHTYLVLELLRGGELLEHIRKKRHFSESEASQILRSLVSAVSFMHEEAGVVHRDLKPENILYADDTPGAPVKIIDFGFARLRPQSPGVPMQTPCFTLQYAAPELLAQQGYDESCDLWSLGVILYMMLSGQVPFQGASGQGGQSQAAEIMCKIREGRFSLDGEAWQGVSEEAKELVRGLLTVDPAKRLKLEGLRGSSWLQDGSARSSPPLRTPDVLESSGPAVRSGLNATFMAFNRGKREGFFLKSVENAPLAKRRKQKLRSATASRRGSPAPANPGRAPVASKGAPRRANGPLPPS
Chain of kinases (Homo sapiens, UniProt Q32MK0) (Q32MK0 whole entry): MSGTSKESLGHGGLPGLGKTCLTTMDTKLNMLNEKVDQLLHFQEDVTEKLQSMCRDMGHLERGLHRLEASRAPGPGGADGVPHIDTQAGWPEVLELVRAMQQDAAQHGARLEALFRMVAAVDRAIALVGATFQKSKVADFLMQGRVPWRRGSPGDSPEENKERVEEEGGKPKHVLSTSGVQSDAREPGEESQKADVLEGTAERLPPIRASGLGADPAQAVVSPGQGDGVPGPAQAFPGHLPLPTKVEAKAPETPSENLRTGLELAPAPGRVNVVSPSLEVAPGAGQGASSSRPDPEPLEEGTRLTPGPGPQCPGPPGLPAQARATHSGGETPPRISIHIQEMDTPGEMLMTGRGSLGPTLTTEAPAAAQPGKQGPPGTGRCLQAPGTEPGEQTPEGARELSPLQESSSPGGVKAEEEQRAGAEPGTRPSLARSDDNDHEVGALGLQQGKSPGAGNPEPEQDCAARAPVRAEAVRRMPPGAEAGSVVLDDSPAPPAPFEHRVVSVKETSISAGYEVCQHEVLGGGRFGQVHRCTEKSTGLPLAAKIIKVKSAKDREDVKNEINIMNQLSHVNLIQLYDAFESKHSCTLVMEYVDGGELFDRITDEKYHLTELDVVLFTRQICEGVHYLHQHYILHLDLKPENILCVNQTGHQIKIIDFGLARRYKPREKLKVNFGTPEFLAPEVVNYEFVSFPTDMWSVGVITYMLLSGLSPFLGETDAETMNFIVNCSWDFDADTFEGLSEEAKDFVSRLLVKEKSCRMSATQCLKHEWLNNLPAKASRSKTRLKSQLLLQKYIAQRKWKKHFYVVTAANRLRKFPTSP
Chain of kinases (Homo sapiens, UniProt Q00526) (Q00526 whole entry): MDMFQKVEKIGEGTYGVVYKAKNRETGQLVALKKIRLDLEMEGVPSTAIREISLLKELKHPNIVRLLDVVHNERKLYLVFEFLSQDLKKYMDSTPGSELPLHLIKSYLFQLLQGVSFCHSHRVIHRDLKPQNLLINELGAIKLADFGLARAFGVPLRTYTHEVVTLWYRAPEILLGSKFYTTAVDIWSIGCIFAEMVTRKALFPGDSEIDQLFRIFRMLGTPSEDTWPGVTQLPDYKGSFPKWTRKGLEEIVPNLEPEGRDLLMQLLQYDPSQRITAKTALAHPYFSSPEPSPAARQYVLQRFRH

Cc1ccc(NC(=O)c2ccnc(N3CCOCC3)c2)cc1Nc1ccnc(N2CC(C)OC(C)C2)n1 (centres unmarked) [compound 3]
Mean Inhib (%) (kinases [1]): −2.1% | Mean Inhib (%) (kinases [2]): −0.8% | Mean Inhib (%) (kinases [3]): 16.9% | Mean Inhib (%) (kinases [4]): 2.8% | Mean Inhib (%) (kinases [5]): 12.1% | Mean Inhib (%) (kinases [6]): 5.8% | Mean Inhib (%) (kinases [7]): −2.1% | Mean Inhib (%) (kinases [8]): 23.3% | Mean Inhib (%) (kinases [9]): 4.6% | Mean Inhib (%) (kinases [10]): 6.5% | Mean Inhib (%) (kinases [11]): 5.1% | Mean Inhib (%) (kinases [12]; [25]): 17.9% | Mean Inhib (%) (kinases [12]; [26]): 5.3% | Mean Inhib (%) (kinases [13]): 0.0% | Mean Inhib (%) (kinases [14]): 6.0% | Mean Inhib (%) (kinases [15]): 6.7% | Mean Inhib (%) (kinases [16]): 45.9% | Mean Inhib (%) (kinases [17]): 4.5% | Mean Inhib (%) (kinases [18]): −4.1% | Mean Inhib (%) (kinases [19]): 65.5% | Mean Inhib (%) (kinases [20]): 4.5% | Mean Inhib (%) (kinases [21]): −7.3% | Mean Inhib (%) (kinases [22]): 9.3% | Mean Inhib (%) (kinases [23]): 9.6% | kinase specificity (kinase inhibition profile) (kinases [24]): strong specificity in targeting p38α; also recorded: very specific for p38α/β | Mean Inhib (%) (kinases [24]; [27]): 16.3% | Mean Inhib (%) (kinases [24]; [28]): −11.1%

Cc1cc(Oc2ccnc(Nc3ccc(S(N)(=O)=O)cc3)c2)c(-c2ccccn2)nc1C [compound 65]
Mean Inhib (%) (kinases [1]): 1.6% | Mean Inhib (%) (kinases [2]): 5.3% | Mean Inhib (%) (kinases [3]): 12.0% | Mean Inhib (%) (kinases [4]): 85.2% | Mean Inhib (%) (kinases [5]): 20.0% | Mean Inhib (%) (kinases [6]): 56.6% | Mean Inhib (%) (kinases [7]): 4.0% | Mean Inhib (%) (kinases [8]): −2.0% | Mean Inhib (%) (kinases [9]): 1.2% | Mean Inhib (%) (kinases [10]): −2.0% | Mean Inhib (%) (kinases [11]): 44.8% | Mean Inhib (%) (kinases [12]; [25]): 12.1% | Mean Inhib (%) (kinases [12]; [26]): 5.2% | Mean Inhib (%) (kinases [13]): −3.2% | Mean Inhib (%) (kinases [14]): 9.6% | Mean Inhib (%) (kinases [15]): 29.9% | Mean Inhib (%) (kinases [16]): 1.6% | Mean Inhib (%) (kinases [17]): 11.4% | Mean Inhib (%) (kinases [18]): 2.7% | Mean Inhib (%) (kinases [19]): 1.6% | Mean Inhib (%) (kinases [20]): 0.8% | Mean Inhib (%) (kinases [21]): −6.4% | Mean Inhib (%) (kinases [22]): −14.5% | Mean Inhib (%) (kinases [23]): 5.8% | Mean Inhib (%) (kinases [24]; [27]): 42.0% | Mean Inhib (%) (kinases [24]; [28]): −1.0%
